target: T1, Recombinant human Met (c-Met) (Homo sapiens, UniProt P08581); test: Inhibition of c-Met kinase activity using Transcreener FP assay; assay type: biochemical; settings: Poly E4Y substrate, 28° C. 45 min, read-out: IC50, inhibition of c-Met kinase activity
T1 construct: purchased Invitrogen PV3143
T1 sequence (P08581 956-1390 limits assumed): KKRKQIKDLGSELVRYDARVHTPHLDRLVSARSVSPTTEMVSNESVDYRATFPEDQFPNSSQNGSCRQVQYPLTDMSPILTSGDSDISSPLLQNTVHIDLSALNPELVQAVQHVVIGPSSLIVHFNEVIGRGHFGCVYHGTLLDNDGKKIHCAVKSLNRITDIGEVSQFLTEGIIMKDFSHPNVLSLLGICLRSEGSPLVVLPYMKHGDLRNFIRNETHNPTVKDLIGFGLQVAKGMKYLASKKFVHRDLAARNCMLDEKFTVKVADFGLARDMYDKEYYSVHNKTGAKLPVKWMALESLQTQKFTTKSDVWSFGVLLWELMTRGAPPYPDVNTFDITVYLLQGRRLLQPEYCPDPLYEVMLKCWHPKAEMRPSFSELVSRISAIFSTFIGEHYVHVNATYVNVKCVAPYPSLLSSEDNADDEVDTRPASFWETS

SMILES | IC50 [nM]
O[C@@H]1CCC[C@H]1Nc1ccc2nnn(Cc3ccc4ncccc4c3)c2n1 [Compound 241] | 100 to 1000
OCCn1cc(-c2cnc3nnn(Cc4ccn5nccc5n4)c3n2)cn1 [Compound 288] | 100 to 1000
OC1CCCC1n1cc(-c2ccc3nnn(Cc4ccc5ncccc5c4)c3n2)cn1 (stereo not shown) [Compound 119] | 100 to 1000
Cn1cc(-c2cnc3nnn(Cc4ccc5ncc(CN6CCOCC6)n5c4)c3n2)cn1 [Compound 320] | 100 to 1000
CNc1cc(Nc2cnc3nnn(Cc4ccc5ncccc5c4)c3n2)ccn1 [Compound 231] | 100 to 1000
CCn1cc(-c2cnc3nnn(Cc4csc5ncccc45)c3n2)cn1 [Compound 41] | 100 to 1000
COCCn1cc(-c2cnc3nnn(Cc4cc5cnccc5s4)c3n2)cn1 [Compound 23] | 100 to 1000
O[C@@H]1CCC[C@H]1Nc1ccnc(Nc2ccc3nnn(Cc4ccc5ncccc5c4)c3n2)c1 [Compound 219] | 100 to 1000
Cc1cccc(N(C)c2cnc3nnn(Cc4ccc5ncccc5c4)c3n2)n1 [Compound 154] | 100 to 1000
OCCn1cc(-c2ccc3nnn(Cc4cc5cnccc5s4)c3n2)cn1 [Compound 74] | 100 to 1000
c1c[nH]c(-c2ccc3nnn(Cc4ccc5ncccc5c4)c3n2)c1 [Compound 64] | 100 to 1000
OCCn1cc(-c2cnc3nnn(Cc4ccn5ncnc5c4)c3n2)cn1 [Compound 317] | 100 to 1000
O=C(O)Cn1cc(-c2ccc3nnn(Cc4ccc5ncccc5c4)c3n2)cn1 [Compound 66] | 100 to 1000
FC(F)(F)Cn1cc(-c2cnc3nnn(Cc4ccn5nccc5n4)c3n2)cn1 [Compound 293] | 100 to 1000
c1ccc(Nc2cnc3nnn(Cc4ccc5ncccc5c4)c3n2)nc1 [Compound 168] | 1 to 100
c1cn2cc(Cn3nnc4ncc(-c5cnn(C6CCNCC6)c5)nc43)ccc2n1 [Compound 46] | 1 to 100

SMILES | IC50 [nM]
Cc1ccnc(Nc2cnc3nnn(Cc4ccc5ncccc5c4)c3n2)c1 [Compound 196] | 1 to 100
OCCn1cc(-c2cnc3nnn(Cc4cc5[nH]ncc5s4)c3n2)cn1 [Compound 13] | 1 to 100
COc1cccnc1Nc1cnc2nnn(Cc3ccc4ncccc4c3)c2n1 [Compound 213] | 1 to 100
N#Cc1cc(Nc2cnc3nnn(Cc4ccc5ncccc5c4)c3n2)ccn1 [Compound 190] | 1 to 100
OC1(CNc2ccc3nnn(Cc4ccc5ncccc5c4)c3n2)CCCCC1 [Compound 247] | 100 to 1000
CN1CC[C@H](Nc2cc(Nc3cnc4nnn(Cc5ccc6ncccc6c5)c4n3)ccn2)C1 [Compound 229] | 1 to 100
COc1cccc(-c2ccc3nnn(Cc4c[nH]c5ncccc45)c3n2)c1 [Compound 112] | 1 to 100
CC(C)n1cc(-c2ccc3nnn(Cc4ccc5ncccc5c4)c3n2)cn1 [Compound 144] | 1 to 100
COCCn1cc(-c2cnc3nnn(Cc4cc5[nH]ncc5s4)c3n2)cn1 [Compound 45] | 1 to 100
OCCn1cc(-c2ccc3nnn(Cc4cc5cccnc5cc4F)c3n2)cn1 [Compound 128] | 1 to 100
CC(c1ccc2ncsc2c1)n1nnc2ncc(-c3cnn(CCO)c3)nc21 (stereo not shown) [Compound 20] | 1 to 100
c1csc(-c2ccc3nnn(Cc4ccc5ncccc5c4)c3n2)c1 [Compound 87] | 1 to 100
c1cnc2ccc(Cn3nnc4ccc(NC5CCOCC5)nc43)cc2c1 [Compound 253] | 1 to 100
FC(F)(F)Cn1cc(-c2cnc3nnn(Cc4cc5[nH]ncc5s4)c3n2)cn1 [Compound 42] | 1 to 100
Cc1cccc(Nc2ccc3nnn(Cc4ccc5ncccc5c4)c3n2)n1 [Compound 182] | 1 to 100

The remaining lines, values ahead:

IC50 [nM] | SMILES
1 to 100 | CN(c1ccncc1)c1cnc2nnn(Cc3ccc4ncccc4c3)c2n1 [Compound 177]
1 to 100 | Cc1cc(Nc2cnc3nnn(Cc4ccc5ncccc5c4)c3n2)no1 [Compound 200]
1 to 100 | CCCn1cc(-c2ccc3nnn(Cc4ccc5nccn5c4)c3n2)cn1 [Compound 140]
1 to 100 | c1cncc(Nc2ccc3nnn(Cc4ccc5ncccc5c4)c3n2)c1 [Compound 237]
1 to 100 | Cc1cc(Nc2cnc3nnn(Cc4ccc5ncccc5c4)c3n2)cc(C)n1 [Compound 224]
1 to 100 | CCn1cc(-c2cnc3nnn(Cc4ccc5nccn5c4)c3n2)cn1 [Compound 8]
1 to 100 | COCCn1cc(-c2ccc3nnn(Cc4c[nH]c5ncccc45)c3n2)cn1 [Compound 111]
1 to 100 | COCCOc1cc(Nc2cnc3nnn(Cc4ccc5ncccc5c4)c3n2)ccn1 [Compound 186]
1 to 100 | COc1ccc(Nc2cnc3nnn(Cc4ccc5ncccc5c4)c3n2)cn1 [Compound 162]
1 to 100 | OC1COCC1Nc1cc(Nc2cnc3nnn(Cc4ccc5ncccc5c4)c3n2)ccn1 (stereo not shown) [Compound 228]
1 to 100 | COCCNc1ccc(-c2ccc3nnn(Cc4ccc5ncccc5c4)c3n2)cn1 [Compound 82]
1 to 100 | CC(c1ccc2ncsc2c1)n1nnc2ncc(-c3cnn(C)c3)nc21 (stereo not shown) [Compound 19]
1 to 100 | c1cn2cc(Cn3nnc4ncc(-c5cnn(C6CNC6)c5)nc43)ccc2n1 [Compound 290]
1 to 100 | FC(F)(F)Cn1cc(-c2ccc3nnn(Cc4ccc5ncccc5c4)c3n2)cn1 [Compound 147]
1 to 100 | CCn1cc(-c2cnc3nnn(Cc4cc5[nH]ncc5s4)c3n2)cn1 [Compound 25]
1 to 100 | c1cnc2ccc(Cn3nnc4ncc(Nc5ccnc(N6CCOCC6)c5)nc43)cc2c1 [Compound 230]
1 to 100 | N#CCn1cc(-c2cnc3nnn(Cc4ccn5nccc5c4)c3n2)cn1 [Compound 301]
1 to 100 | CC(=O)Nc1ccc(-c2ccc3nnn(Cc4ccc5ncccc5c4)c3n2)cn1 [Compound 91]
1 to 100 | Cn1cc(-c2ccc3nnn(Cc4cc5cccnc5cc4F)c3n2)cn1 [Compound 127]
1 to 100 | OCCn1cc(-c2cnc3nnn(Cc4ccn5ncc(CO)c5c4)c3n2)cn1 [Compound 313]
1 to 100 | O[C@@H]1CCC[C@H]1Nc1cc(Nc2cnc3nnn(Cc4ccc5ncccc5c4)c3n2)ccn1 [Compound 207]
1 to 100 | CCC(c1ccc2nccn2c1)n1nnc2ncc(-c3cnn(C)c3)nc21 (stereo not shown) [Compound 326]
1 to 100 | COCCn1cc(-c2cnc3nnn(Cc4n[nH]c5ncccc45)c3n2)cn1 [Compound 15]
1 to 100 | Cn1cc(-c2ccc3nnn(Cc4ccc5ncccc5c4F)c3n2)cn1 [Compound 129]

— patent US11896592B2, “Certain triazolopyridines and triazolopyrazines, compositions thereof and methods of use therefor” (Hutchison Medipharma Limited, priority 2009, dated 2024)
